Paper PMC9770960 (Science Advances, 2022)
Where a name gives a salt, the structure may show the parent alone.

Target: T1, Rec1-resilin (Drosophila melanogaster, UniProt Q9V7U0)
T1 sequence (Q9V7U0 18-322 limits assumed): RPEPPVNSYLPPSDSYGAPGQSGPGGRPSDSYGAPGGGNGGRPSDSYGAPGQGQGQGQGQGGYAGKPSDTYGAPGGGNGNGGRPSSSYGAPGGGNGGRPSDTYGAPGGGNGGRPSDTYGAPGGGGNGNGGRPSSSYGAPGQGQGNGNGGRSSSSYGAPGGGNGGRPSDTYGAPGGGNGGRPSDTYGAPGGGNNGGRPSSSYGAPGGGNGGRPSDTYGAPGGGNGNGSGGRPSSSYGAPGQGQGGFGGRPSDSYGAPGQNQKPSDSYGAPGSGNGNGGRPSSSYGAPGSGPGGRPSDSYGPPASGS
Experiment: ANS fluorescence titration, Scatchard plot
Format: binding

`O=S(=O)(O)c1cccc2cccc(Nc3ccccc3)c12` [ANS, 8-anilino-1-naphthalenesulfonic acid (ammonium salt)] showed a Kd of 58.8 µM.
